One assay concerns the target HLA-B*0702 (Homo sapiens, UniProt P01889). Kind of assay: HLA-B*0702 peptide binding assay.
A further assay deals with HLA-B*5301 (Homo sapiens, UniProt P01889, A329T/A93T/A95T/C349S/D201E/D98Y/E176V/E187L/E204Q/E69T/G107R/I218V/K202T/L105A/L119I/N104I/Q94N/R106L/R155S/R180L/S101N/S121R/S35A/S48A/T118I/V127L/V306I/V36M/Y140S/Y91F). Kind of assay: HLA-B*5301 peptide binding assay.
In the next assay the target is HLA-B*3501 (Homo sapiens, UniProt P01889, A329T/A93T/A95T/C349S/D201E/D98Y/E176V/E187L/E204Q/E69T/I218V/K202T/L119I/Q94N/R155S/R180L/S121R/S35A/S48A/T118I/V127L/V306I/V36M/Y140S/Y91F). Kind of assay: HLA-B*3501 peptide binding assay.

This note sets out measurements from article PMC2890073 (Immunogenetics, 2010).

Where no end group is shown, it is not given here.

For orientation: IC50 means the concentration at which inhibition is half-maximal. In turn, `CC(C)C[C@H](NC(=O)[C@@H]1CCCN1C(=O)[C@@H](NC(=O)[C@H](CCC(N)=O)NC(=O)[C@@H]1CCCN1C(=O)[C@@H](NC(=O)[C@@H](NC(=O)[C@@H]1CCCN1C(=O)[C@@H](N)Cc1ccccc1)C(C)C)[C@@H](C)O)C(C)C)C(=O)O` came in with an IC50 at HLA-B*0702 of 1 nM.

The compound `CC(C)C[C@H](NC(=O)[C@@H]1CCCN1C(=O)[C@@H](N)Cc1ccc(O)cc1)C(=O)N[C@H](C(=O)N[C@@H](Cc1ccccc1)C(=O)NCC(=O)N[C@@H](Cc1c[nH]c2ccccc12)C(=O)N[C@@H](CS)C(=O)N[C@@H](Cc1ccccc1)C(=O)O)[C@@H](C)O` came in with an IC50 at HLA-B*5301 of 9.5 nM.

HPDIVIYQY displayed an IC50 at HLA-B*3501 of 7.9 nM.
